Results as given in patent US5650411A, “Substituted azolone derivatives” (Janssen Pharmaceutica N.V., priority 1993, dated 1997).
Values after ≈ are worked out from the molar mass of the structure shown. Like-named read-outs stand apart in the source and are kept apart here.

System: Helicobacter pylori
Assay: Minimal inhibitory concentration (MIC) against Helicobacter pylori, urease read-out, 5 clinical strains
Type: cell-based
Protocol: The anti-Helicobacter activity of the subject compounds was assessed by the following in-vitro test procedure.
The activity of test compounds against Helicobacter pylori was determined against a standard set of 5 H. priori strains obtained from clinical material. Minimal inhibitory concentrations (MICs) were determined by measuring the activity of H. pylori urease after treatment of growing cultures of the bacteria with the antimicrobial agents.
The test compounds were dissolved in DMSO at a concentration of 10^-3 M. A dilution to 10^-4 M in DMSO was also prepared. 10 μl volumes of these solutions were pipetted in the wells of Repli-Dishes (®Sterilin). Wells containing DMSO alone were included as controls in each Repli-Dish. Ampicillin ((+)-6-[(2-amino-2-phenylacetyl)amino]-3,3-dimethyl-7-oxo-4-thia-1-azabicyclo[3.2.0]heptane-2-carboxylic acid trihydrate) and metronidazole (2-methyl-5-nitro-1H-imidazol-1-ethanol) were included as reference compounds in each batch of tests. (These compounds were tested at final concentrations of 10^-5, 10^-6, 10^-7 and 10^-8 M). Test plates were stored at 4° C. until used. The five isolates of H. pylori were maintained by subculture on 10% blood agar every 2 or 3 days. The bacteria were grown at 37° C. under an atmosphere containing 5% oxygen, 10% CO2 and 85% nitrogen. Suspensions of Helicobacter pylori for inoculum were prepared in Brain-heart infusion broth and adjusted to an absorbance of 1.5±0.3 at […].
Freshly prepared 10% blood agar held at 45° C. was added in 1 ml volumes to the wells of the test plates, thus diluting the test compounds to 10^-5 and 10^-6 M. The medium was allowed to cool, then 10 μl volumes of bacterial suspension were pipetted on the agar surface. The plates were incubated for 48 h at 37° C. under the microaerophilic atmosphere described above. […] After the 48 h of incubation, 1 ml volumes of urease broth were gently added to each Repli-Dish well and the plates were incubated at 37° C. for 2 h. 100 μl samples of fluid from each well were then pipetted into the wells of 96-place microdilution plates. A purple colour was interpreted as growth, yellow-orange as no growth of H. pylori. By this means a clear end-point was obtained, from which the inhibitory effects could be determined.
Table 1 summarizes the MIC values determined by the above procedure for a subset of the subject compounds.

[1] = 5 H. pylori clinical strains, 10% blood agar, 48 h at 37° C., microaerophilic, read-out: MIC

Row | MIC [1] | SMILES | MIC (48 h)
1 |  | CC(C(=O)c1ccc(Br)cc1)n1ncn(-c2ccc(N3CCN(c4ccc(O[Si](C)(C)C(C)(C)C)cc4)CC3)cc2)c1=O (stereo not drawn) [compound 47, 2-[1-(4-bromobenzoyl)ethyl]-4-[4-[4-[4-[[(1,1-dimethylethyl)dimethylsilyl]oxy]phenyl]-1-piperazinyl]phenyl]-2,4-dihydro-3H-1,2,4-triazol-3-one] | 1 µM (≈ 0.663 µg/mL)
2 | 0.1 µM (≈ 0.0534 µg/mL) | CCC(C(=O)c1ccc(Cl)cc1)n1ncn(-c2cnc(N3CCN(c4ccc(OC)cc4)CC3)nc2)c1=O (racemic) [compound 8, (±)-2-[1-(4-chlorobenzoyl)propyl]-2,4-dihydro-4-[2-[4-(4-methoxyphenyl)-1-piperazinyl]-5-pyrimidinyl]-3H-1,2,4-triazol-3-one] | 
3 | 0.1 µM (≈ 0.052 µg/mL) | CCC(C(=O)c1ccc(Cl)cc1)n1ncn(-c2cnc(N3CCN(c4ccc(O)cc4)CC3)nc2)c1=O (racemic) [compound 26, (±)-2-[1-(4-chlorobenzoyl)propyl]-2,4-dihydro-4-[2-[4-(4-hydroxyphenyl)-1-piperazinyl]-5-pyrimidinyl]-3H-1,2,4-triazol-3-one] | 
